Laboratory results published in US20100298141A1, “SUBSTITUTED PYRIDINE N-OXIDE HERBICIDES” (E. I. DU PONT DE NEMOURS AND COMPANY, priority 2007, published 2010).

What was measured:
barnyardgrass = experiment: Test A pre-/postemergence greenhouse test; format: in vivo, Echinochloa crus-galli; details: for Plant response rating, Barnyardgrass: 0 to 100 scale where 0 is no effect and 100 is complete control; for Barnyardgrass plant response rating: 0 to 100 scale
Outline: (§1)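 Untreated controls served as the reference for visual injury ratings taken about ten days after spraying. The non-phytotoxic solvent/surfactant formulation was applied preemergence to seeded loam and sand and postemergence to plants two to ten cm high.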

crabgrass [1] = experiment: Test A pre-/postemergence greenhouse test; format: in vivo, Digitaria sanguinalis; details: for Plant response rating, Crabgrass, Large: 0 to 100 scale where 0 is no effect and 100 is complete control; for Crabgrass, Large plant response rating: 0 to 100 scale
Outline: as §1

wheat = experiment: Test A pre-/postemergence greenhouse test; format: in vivo, Triticum aestivum; details: for Plant response rating, Wheat: 0 to 100 scale where 0 is no effect and 100 is complete control; for Wheat plant response rating: 0 to 100 scale
Outline: as §1

corn [2] = experiment: Test A pre-/postemergence greenhouse test; format: in vivo, Zea mays; details: for Plant response rating, Corn: 0 to 100 scale where 0 is no effect and 100 is complete control; for Corn plant response rating: 0 to 100 scale
Outline: as §1

Italian ryegrass = experiment: Test C pre-/postemergence test; format: in vivo, Lolium multiflorum
Outline: (§2)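 Compounds in a non-phytotoxic solvent with surfactant applied preemergence to seeded pots and, at the same time, postemergence to plants 2–18 cm tall (1- to 4-leaf stage). Paddy tests: pots flooded to 3 cm, compound applied into the water, depth held throughout.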

Surinam grass = experiment: Test C pre-/postemergence test; format: in vivo, Brachiaria decumbens
Outline: as §2

corn [3] = experiment: Test C pre-/postemergence test; format: in vivo, Zea mays
Outline: as §2

crabgrass [4] = experiment: Test C pre-/postemergence test; format: in vivo, Digitaria sanguinalis
Outline: as §2

giant foxtail = experiment: Test C pre-/postemergence test; format: in vivo, Setaria faberii
Outline: as §2

Goosegrass = experiment: Test C pre-/postemergence test; format: in vivo, Eleusin indica
Outline: as §2

johnsongrass = experiment: Test C pre-/postemergence test; format: in vivo, Sorghum halepense
Outline: as §2

morningglory = experiment: Test C pre-/postemergence test; format: in vivo, Ipomoea coccinea
Outline: as §2

eastern black nightshade = experiment: Test C pre-/postemergence test; format: in vivo, Solanum ptycanthum
Outline: as §2

pigweed = experiment: Test C pre-/postemergence test; format: in vivo, Amaranthus retroflexus; details: for Pigweed plant response rating: preemergence, scale 0 (no effect) to 100 (complete control); for Plant response rating (0 to 100), Pigweed / Plant response rating, Pigweed: Postemergence; for Plant response rating, Pigweed: scale 0 to 100, 0 no effect, 100 complete control
Outline: as §2

[5] = test system: common (oilseed) sunflower; experiment: Test C pre-/postemergence test; format: in vivo, Helianthus annuus
Outline: as §2

velvetleaf = experiment: Test C pre-/postemergence test; format: in vivo, Abutilon theophrasti
Outline: as §2

umbrella sedge = experiment: Test C flooded paddy test; format: in vivo, Cyperus difformis; details: Flood
Outline: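 Ratings were visual and made relative to untreated controls after 13 to 15 greenhouse days.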

[6] = Postemergence, 500 g ai/ha, 0 is no effect, 100 is complete control
[7] = Preemergence, 125 g ai/ha, 0 no effect, 100 complete control
[8] = 62 g ai/ha, Preemergence, scale 0 to 100
[9] = 125 g ai/ha, preemergence, scale 0 (no effect) to 100 (complete control)
[10] = Postemergence, 125 g ai/ha, scale 0 to 100, 0 no effect, 100 complete control
[11] = Postemergence, 250 g ai/ha, scale 0 to 100, 0 no effect, 100 complete control
[12] = Preemergence, 31 g ai/ha, scale 0 to 100 (0 no effect, 100 complete control)
[13] = preemergence, 250 g ai/ha, scale 0 (no effect) to 100 (complete control)

Cn1nc(C(F)(F)C(F)(F)F)c(C[S+]([O-])c2cccc[n+]2[O-])c1OCC(F)(F)F (centres unmarked) [Compound 79]
85: Surinam Grass plant response rating (Surinam grass; [8]) | Plant response rating, Surinam Grass (Surinam grass; [11])
40: Plant response rating (0 to 100), Ryegrass, Italian (Italian ryegrass; Postemergence, 62 g ai/ha) | Plant response rating, Ryegrass, Italian (Italian ryegrass; [12]) | Plant response rating, Crabgrass, Large (crabgrass [4]; [12]) | Plant response rating, Goosegrass (Goosegrass; [10]) | Plant response rating, Nightshade (eastern black nightshade; [12]) | Plant response rating, Sunflower [5, 12]
95: Johnsongrass plant response rating (johnsongrass; [8]) | Johnsongrass plant response rating (johnsongrass; [9]) | Johnsongrass plant response rating (johnsongrass; [13])
100: Barnyardgrass plant response rating (barnyardgrass; [7]) | Plant response rating, Barnyardgrass (barnyardgrass; Preemergence, 500 g ai/ha) | Plant response rating, Crabgrass, Large (crabgrass [1]; Preemergence, 500 g ai/ha) | Plant response rating, Wheat (wheat; Preemergence, 500 g ai/ha) | Ryegrass, Italian plant response rating (Italian ryegrass; [9]) | Plant response rating, Ryegrass, Italian (Italian ryegrass; [11]) | Ryegrass, Italian plant response rating (Italian ryegrass; [13]) | Surinam Grass plant response rating (Surinam grass; [13]) | Corn plant response rating (corn [3]; [8]) | Corn plant response rating (corn [3]; [9]) | Corn plant response rating (corn [3]; [13]) | Crabgrass, Large plant response rating (crabgrass [4]; [9]) | Crabgrass, Large plant response rating (crabgrass [4]; [13]) | Foxtail, Giant plant response rating (giant foxtail; [13]) | Goosegrass plant response rating (Goosegrass; [9]) | Goosegrass plant response rating (Goosegrass; [13]) | Morningglory plant response rating (morningglory; [8]) | Morningglory plant response rating (morningglory; [9]) | Morningglory plant response rating (morningglory; [13]) | Nightshade plant response rating (eastern black nightshade; [13]) | Pigweed plant response rating (pigweed; 250 g ai/ha) | Sunflower plant response rating [5, 9] | Sunflower plant response rating [5, 13] | Velvetleaf plant response rating (velvetleaf; [8]) | Velvetleaf plant response rating (velvetleaf; [9]) | Plant response rating, Velvetleaf (velvetleaf; [12]) | Velvetleaf plant response rating (velvetleaf; [13]) | Plant response rating, Sedge, Umbrella (umbrella sedge; 250 g ai/ha, scale 0 to 100, 0 no effect, 100 complete control, 13 to 15 days)
90: Barnyardgrass plant response rating (barnyardgrass; [6]) | Crabgrass, Large plant response rating (crabgrass [1]; [6]) | Plant response rating, Sedge, Umbrella (umbrella sedge; 62 g ai/ha, scale 0 to 100 (0 no effect, 100 complete control))
75: Goosegrass plant response rating (Goosegrass; [8])
98: Surinam Grass plant response rating (Surinam grass; [9])
70: Plant response rating, Crabgrass, Large (crabgrass [1]; Postemergence, 125 g ai/ha) | Crabgrass, Large plant response rating (crabgrass [1]; [7]) | Wheat plant response rating (wheat; [6]) | Foxtail, Giant plant response rating (giant foxtail; [8]) | Plant response rating, Foxtail, Giant (giant foxtail; [11]) | Plant response rating, Foxtail, Giant (giant foxtail; [12]) | Plant response rating, Goosegrass (Goosegrass; [12]) | Pigweed plant response rating (pigweed; 125 g ai/ha) | Plant response rating, Velvetleaf (velvetleaf; [11])
30: Plant response rating, Surinam Grass (Surinam grass; [10])
60: Ryegrass, Italian plant response rating (Italian ryegrass; [8]) | Plant response rating, Ryegrass, Italian (Italian ryegrass; [10]) | Plant response rating, Surinam Grass (Surinam grass; [12]) | Plant response rating, Corn (corn [3]; [10]) | Plant response rating, Corn (corn [3]; [11]) | Plant response rating, Corn (corn [3]; [12]) | Plant response rating, Morningglory (morningglory; [12]) | Plant response rating, Pigweed (pigweed; 250 g ai/ha) | Sunflower plant response rating [5, 8]
25: Plant response rating (0 to 100), Corn (corn [3]; Postemergence, 62 g ai/ha) | Plant response rating, Johnsongrass (johnsongrass; [10])
80: Plant response rating, Barnyardgrass (barnyardgrass; Postemergence, 125 g ai/ha) | Wheat plant response rating (wheat; [7]) | Corn plant response rating (corn [2]; [6]) | Plant response rating, Corn (corn [2]; Preemergence, 500 g ai/ha) | Crabgrass, Large plant response rating (crabgrass [4]; [8]) | Foxtail, Giant plant response rating (giant foxtail; [9]) | Plant response rating, Johnsongrass (johnsongrass; [12])
0: Corn plant response rating (corn [2]; [7]) | Plant response rating (0 to 100), Ryegrass, Italian (Italian ryegrass; Postemergence, 31 g ai/ha) | Plant response rating (0 to 100), Surinam Grass (Surinam grass; Postemergence, 31 g ai/ha) | Plant response rating (0 to 100), Surinam Grass (Surinam grass; Postemergence, 62 g ai/ha) | Plant response rating (0 to 100), Corn (corn [3]; Postemergence, 31 g ai/ha) | Plant response rating (0 to 100), Crabgrass, Large (crabgrass [4]; Postemergence, 31 g ai/ha) | Plant response rating (0 to 100), Crabgrass, Large (crabgrass [4]; Postemergence, 62 g ai/ha) | Plant response rating, Crabgrass, Large (crabgrass [4]; [10]) | Plant response rating (0 to 100), Foxtail, Giant (giant foxtail; Postemergence, 31 g ai/ha) | Plant response rating (0 to 100), Foxtail, Giant (giant foxtail; Postemergence, 62 g ai/ha) | Plant response rating (0 to 100), Goosegrass (Goosegrass; Postemergence, 31 g ai/ha) | Plant response rating (0 to 100), Goosegrass (Goosegrass; Postemergence, 62 g ai/ha) | Plant response rating (0 to 100), Johnsongrass (johnsongrass; Postemergence, 31 g ai/ha) | Plant response rating (0 to 100), Morningglory (morningglory; Postemergence, 31 g ai/ha) | Plant response rating (0 to 100), Morningglory (morningglory; Postemergence, 62 g ai/ha) | Plant response rating, Morningglory (morningglory; [10]) | Plant response rating, Morningglory (morningglory; [11]) | Plant response rating (0 to 100), Pigweed (pigweed; 31 g ai/ha) | Plant response rating (0 to 100), Pigweed (pigweed; 62 g ai/ha) | Plant response rating (0 to 100), Velvetleaf (velvetleaf; Postemergence, 31 g ai/ha) | Plant response rating (0 to 100), Velvetleaf (velvetleaf; Postemergence, 62 g ai/ha)
50: Plant response rating, Wheat (wheat; Postemergence, 125 g ai/ha) | Plant response rating, Crabgrass, Large (crabgrass [4]; [11]) | Plant response rating, Foxtail, Giant (giant foxtail; [10]) | Plant response rating, Goosegrass (Goosegrass; [11]) | Plant response rating, Johnsongrass (johnsongrass; [11]) | Nightshade plant response rating (eastern black nightshade; [8]) | Nightshade plant response rating (eastern black nightshade; [9]) | Plant response rating, Velvetleaf (velvetleaf; [10])
20: Plant response rating, Corn (corn [2]; Postemergence, 125 g ai/ha) | Plant response rating (0 to 100), Johnsongrass (johnsongrass; Postemergence, 62 g ai/ha) | Plant response rating, Pigweed (pigweed; 125 g ai/ha)
